# Laboratory results reported in ChEMBL document CHEMBL3352739, “Comparative in vivo evaluation of polyalkoxy substituted 4H-chromenes and oxa-podophyllotoxins as microtubule destabilizing agents in the phenotypic sea urchin embryo assay” (2014).
# Columns and labels:
# [1] = Growth inhibition of human EKVX cells after 48 hrs by sulforhodamine B assay; format: functional
# [2] = system: HOP-62; experiment: Growth inhibition of human HOP62 cells after 48 hrs by sulforhodamine B assay; format: functional; conditions: HOP-62, 48 h
# [3] = Growth inhibition of human HOP92 cells after 48 hrs by sulforhodamine B assay; format: functional; conditions: HOP-92, 48 h
# [4] = system: NCI-H226; experiment: Growth inhibition of human NCI-H226 cells after 48 hrs by sulforhodamine B assay; format: functional; conditions: NCI-H226, 48 h
# [5] = system: NCI-H23; experiment: Growth inhibition of human NCI-H23 cells after 48 hrs by sulforhodamine B assay; format: functional; conditions: NCI-H23, 48 h
# [6] = system: NCI-H322M; experiment: Growth inhibition of human NCI-H322M cells after 48 hrs by sulforhodamine B assay; format: functional
# [7] = system: NCI-H460; experiment: Growth inhibition of human NCI-H460 cells after 48 hrs by sulforhodamine B assay; format: functional; conditions: NCI-H460, 48 h
# [8] = system: NCI-H522; experiment: Growth inhibition of human NCI-H522 cells after 48 hrs by sulforhodamine B assay; format: functional; conditions: NCI-H522, 48 h
# [9] = Growth inhibition of human COLO205 cells after 48 hrs by sulforhodamine B assay; format: functional; conditions: COLO 205, 48 h
# [10] = Growth inhibition of human HCC2998 cells after 48 hrs by sulforhodamine B assay; format: functional; conditions: HCC 2998, 48 h
# [11] = Growth inhibition of human HCT116 cells after 48 hrs by sulforhodamine B assay; format: functional; conditions: HCT-116, 48 h
# [12] = Growth inhibition of human HCT15 cells after 48 hrs by sulforhodamine B assay; format: functional; conditions: HCT-15, 48 h
# [13] = system: HT-29; experiment: Growth inhibition of human HT-29 cells after 48 hrs by sulforhodamine B assay; format: functional; conditions: HT-29, 48 h
# [14] = system: KM12; experiment: Growth inhibition of human KM12 cells after 48 hrs by sulforhodamine B assay; format: functional; conditions: KM12, 48 h
# [15] = system: SW-620; experiment: Growth inhibition of human SW620 cells after 48 hrs by sulforhodamine B assay; format: functional; conditions: SW-620, 48 h
# [16] = system: SF-268; experiment: Growth inhibition of human SF268 cells after 48 hrs by sulforhodamine B assay; format: functional; conditions: SF-268, 48 h
# [17] = Growth inhibition of human SF295 cells after 48 hrs by sulforhodamine B assay; format: functional; conditions: SF-295, 48 h
# [18] = Growth inhibition of human SF539 cells after 48 hrs by sulforhodamine B assay; format: functional; conditions: SF-539, 48 h
# [19] = system: SNB-19; experiment: Growth inhibition of human SNB19 cells after 48 hrs by sulforhodamine B assay; format: functional; conditions: SNB-19, 48 h
# [20] = system: SNB-75; experiment: Growth inhibition of human SNB75 cells after 48 hrs by sulforhodamine B assay; format: functional; conditions: SNB-75, 48 h
# [21] = system: U-251; experiment: Growth inhibition of human U251 cells after 48 hrs by sulforhodamine B assay; format: functional; conditions: U-251, 48 h
# [22] = Growth inhibition of human LOXIMVI cells after 48 hrs by sulforhodamine B assay; format: functional; conditions: LOX IMVI
# [23] = system: M14; experiment: Growth inhibition of human M14 cells after 48 hrs by sulforhodamine B assay; format: functional; conditions: M14, 48 h
# [24] = system: MDA-MB-435; experiment: Growth inhibition of human MDA-MB-435 cells after 48 hrs by sulforhodamine B assay; format: functional; conditions: MDA-MB-435, 48 h
# [25] = system: SK-MEL-2; experiment: Growth inhibition of human SK-MEL-2 cells after 48 hrs by sulforhodamine B assay; format: functional; conditions: SK-MEL-2, 48 h
# [26] = system: SK-MEL-28; experiment: Growth inhibition of human SK-MEL-28 cells after 48 hrs by sulforhodamine B assay; format: functional; conditions: SK-MEL-28, 48 h
# [27] = system: SK-MEL-5; experiment: Growth inhibition of human SK-MEL-5 cells after 48 hrs by sulforhodamine B assay; format: functional; conditions: SK-MEL-5, 48 h
# [28] = Growth inhibition of human UACC62 cells after 48 hrs by sulforhodamine B assay; format: functional; conditions: UACC-62, 48 h
# [29] = system: IGROV-1; experiment: Growth inhibition of human IGROV1 cells after 48 hrs by sulforhodamine B assay; format: functional; conditions: IGROV-1, 48 h
# [30] = Growth inhibition of human OVCAR3 cells after 48 hrs by sulforhodamine B assay; format: functional; conditions: OVCAR-3, 48 h
# [31] = Growth inhibition of human OVCAR4 cells after 48 hrs by sulforhodamine B assay; format: functional; conditions: OVCAR-4, 48 h
# [32] = Growth inhibition of human OVCAR5 cells after 48 hrs by sulforhodamine B assay; format: functional; conditions: OVCAR-5, 48 h
# [33] = Growth inhibition of human OVCAR8 cells after 48 hrs by sulforhodamine B assay; format: functional; conditions: OVCAR-8, 48 h
# [34] = Growth inhibition of human NCI-ADR-RES cells after 48 hrs by sulforhodamine B assay; format: functional
# [35] = system: SK-OV-3; experiment: Growth inhibition of human SKOV3 cells after 48 hrs by sulforhodamine B assay; format: functional; conditions: SK-OV-3, 48 h
# [36] = system: 786-0; experiment: Growth inhibition of human 786-0 cells after 48 hrs by sulforhodamine B assay; format: functional; conditions: 786-0, 48 h
# [37] = system: A498; experiment: Growth inhibition of human A498 cells after 48 hrs by sulforhodamine B assay; format: functional; conditions: A498, 48 h
# [38] = system: ACHN; experiment: Growth inhibition of human ACHN cells after 48 hrs by sulforhodamine B assay; format: functional
# [39] = system: CAKI-1; experiment: Growth inhibition of human CAKI-1 cells after 48 hrs by sulforhodamine B assay; format: functional; conditions: CAKI-1, 48 h
# [40] = Growth inhibition of human RXF393 cells after 48 hrs by sulforhodamine B assay; format: functional; conditions: RXF 393, 48 h
# [41] = system: SN12C; experiment: Growth inhibition of human SN12C cells after 48 hrs by sulforhodamine B assay; format: functional
# [42] = system: TK-10; experiment: Growth inhibition of human TK10 cells after 48 hrs by sulforhodamine B assay; format: functional; conditions: TK-10, 48 h
# [43] = Growth inhibition of human UO31 cells after 48 hrs by sulforhodamine B assay; format: functional; conditions: UO-31, 48 h
# [44] = Growth inhibition of human PC3 cells after 48 hrs by sulforhodamine B assay; format: functional; conditions: PC-3, 48 h
# [45] = system: DU-145; experiment: Growth inhibition of human DU145 cells after 48 hrs by sulforhodamine B assay; format: functional; conditions: DU-145, 48 h
# [46] = system: MCF7; experiment: Growth inhibition of human MCF7 cells after 48 hrs by sulforhodamine B assay; format: functional; conditions: MCF7, 48 h
# [47] = system: MDA-MB-231; experiment: Growth inhibition of human MDA-MB-231 cells after 48 hrs by sulforhodamine B assay; format: functional; conditions: MDA-MB-231, 48 h
# [48] = Growth inhibition of human Hs 578T cells after 48 hrs by sulforhodamine B assay; format: functional
# [49] = Growth inhibition of human BT549 cells after 48 hrs by sulforhodamine B assay; format: functional; conditions: BT-549, 48 h
# [50] = system: MDA-MB-468; experiment: Growth inhibition of human MDA-MB-468 cells after 48 hrs by sulforhodamine B assay; format: functional; conditions: MDA-MB-468, 48 h
# [51] = system: Paracentrotus lividus; experiment: Antimitotic microtubule destabilizing activity in Paracentrotus lividus L embryos assessed as induction of cleavage alteration
# [52] = system: Paracentrotus lividus; experiment: Antimitotic microtubule destabilizing activity in Paracentrotus lividus L embryos assessed as induction of cleavage arrest
# [53] = system: Paracentrotus lividus; experiment: Antimitotic microtubule destabilizing activity in Paracentrotus lividus L embryos assessed as induction of embryo spinning
# [54] = Cytotoxicity against human NCI60 cells; format: functional
# [55] = system: CCRF-CEM; experiment: Growth inhibition of human CCRF-CEM cells after 48 hrs by sulforhodamine B assay; format: functional
# [56] = system: HL-60(TB); experiment: Growth inhibition of human HL-60(TB) cells after 48 hrs by sulforhodamine B assay; format: functional; conditions: HL-60, 48 h
# [57] = system: K562; experiment: Growth inhibition of human K562 cells after 48 hrs by sulforhodamine B assay; format: functional; conditions: K562, 48 h
# [58] = Growth inhibition of human MOLT4 cells after 48 hrs by sulforhodamine B assay; format: functional; conditions: MOLT-4, 48 h
# [59] = Growth inhibition of human RPMI8226 cells after 48 hrs by sulforhodamine B assay; format: functional; conditions: RPMI-8226, 48 h
# [60] = system: SR; experiment: Growth inhibition of human SR cells after 48 hrs by sulforhodamine B assay; format: functional
# [61] = system: A549; experiment: Growth inhibition of human A549/ATCC cells after 48 hrs by sulforhodamine B assay; format: functional; conditions: A549, 48 h
compound,measurement,setting,value
COc1cc(C2C(C#N)=C(N)Oc3cc(O)ccc32)cc(OC)c1OC (stereo unspecified),GI50,[1],6490 nM
same,GI50,[2],796 nM
same,GI50,[3],301 nM
same,GI50,[4],31200 nM
same,GI50,[5],813 nM
same,GI50,[6],783 nM
same,GI50,[7],374 nM
same,GI50,[8],255 nM
same,GI50,[9],852 nM
same,GI50,[10],975 nM
same,GI50,[11],453 nM
same,GI50,[12],513 nM
same,GI50,[13],392 nM
same,GI50,[14],451 nM
same,GI50,[15],347 nM
same,GI50,[16],14500 nM
same,GI50,[17],323 nM
same,GI50,[18],347 nM
same,GI50,[19],811 nM
same,GI50,[20],271 nM
same,GI50,[21],349 nM
same,GI50,[22],523 nM
same,GI50,[23],375 nM
same,GI50,[24],136 nM
same,GI50,[25],539 nM
same,GI50,[26],934 nM
same,GI50,[27],305 nM
same,GI50,[28],358 nM
same,GI50,[29],2840 nM
same,GI50,[30],338 nM
same,GI50,[31],3490 nM
same,GI50,[32],4520 nM
same,GI50,[33],836 nM
same,GI50,[34],2320 nM
same,GI50,[35],560 nM
same,GI50,[36],605 nM
same,GI50,[37],161 nM
same,GI50,[38],922 nM
same,GI50,[39],885 nM
same,GI50,[40],287 nM
same,GI50,[41],790 nM
same,GI50,[42],9830 nM
same,GI50,[43],2800 nM
same,GI50,[44],462 nM
same,GI50,[45],637 nM
same,GI50,[46],324 nM
same,GI50,[47],927 nM
same,GI50,[48],463 nM
same,GI50,[49],386 nM
same,GI50,[50],250 nM
same,EC,[51],4 µM
same,EC,[52],> 4 µM
same,EC,[53],> 4 µM
same,GI50,[54],692 nM
same,GI50,[55],375 nM
same,GI50,[56],327 nM
same,GI50,[57],460 nM
same,GI50,[58],652 nM
same,GI50,[59],691 nM
same,GI50,[60],371 nM
same,GI50,[61],638 nM
